Drawing on PubChem BioAssay (NCI), this text covers TGI and GI50 for 31 compounds.

Molecules are shown by their SMILES. Several values for one entry are separate records, joined by “and”; a condition that tells them apart may be missing. Equal entries are not always repeated.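 Following 48 hours of exposure in 96-well plates, responses at five concentrations were used to interpolate endpoints linearly. Here, GI50 denotes the concentration required for 50% inhibition of growth. TGI denotes the concentration required for complete inhibition of growth.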

The test system of one test is OVCAR-3 ovarian. As to the kind of experiment: NCI tumour cell line growth inhibition, 48 h.
Compound `CN1NC(=Nc2ccccc2)Sc2c1cnn(-c1ccccc1)c2=O` returned a TGI of 90.6 µM.
In the case of `C1C[OH+]CCNCC[OH+]CC[OH+]CCN1.[Cl-].[Pt+4]`, the GI50 is more than 100 µM and the TGI is more than 100 µM.
`CC(=O)c1sc(-c2nc(C)c(C(=O)/C=C\c3ccc(/C=C\C(=O)c4sc(-c5nc(C)c(C(C)=O)s5)nc4C)cc3)s2)nc1C` registered a TGI of more than 100 µM.
The compound `COC(=O)/C(C)=C/[N+](=O)[O-]` registered a TGI of 29.6 µM.
Same read-out and setting: with `Cc1ccc(C2(O)CC(c3ccc([N+](=O)[O-])o3)=NN2C(=O)COc2ccc(Cl)cc2)cc1` (configuration not stated) the figure was 51.7 µM; with `CC1=NN(C(=O)CC(=O)N(C(=O)c2ccccc2Cl)c2ccc(C)cc2)C(=O)C1N=Nc1ccc([N+](=O)[O-])cc1` (configuration not stated), more than 100 µM.
The same measure, in the same setting: the result for `COc1cccc(-n2c3nc(=O)n(C)c(=O)c-3nc3ccccc32)c1` reads 8.8 µM; that for `CC(C)(C=O)CC(C#N)/C(=N\NC(N)=O)C(=O)Nc1ccccc1C(N)=O` (configuration not stated), more than 100 µM.
Regarding `Cc1cc(C)c(C2[C@H]3C(=O)N(c4ccc(Cc5ccc(N6C(=O)[C@@H]7ON(c8ccccc8)C(c8c(C)cc(C)cc8C)[C@@H]7C6=O)cc5)cc4)C(=O)[C@H]3ON2c2ccccc2)c(C)c1` (some centres not stated), the TGI was more than 100 µM.
On the same count and under the same terms, with `COC(=O)OCC1OC(N2C(=O)NC(=O)C(Br)C2N=[N+]=[N-])CC1OC(=O)OC` (configuration not stated) the figure was more than 100 µM; with `CC12CCCCC1(C)C2Sc1ccccc1` (configuration not stated), more than 100 µM; with `CCCCOC(=O)NC(=O)c1cn(CCCOC(=O)NCCCCCCNC(=O)OCCCn2cc(C(=O)NC(=O)OCCCC)c(=O)[nH]c2=O)c(=O)[nH]c1=O`, more than 100 µM.
With `C[C@@]12CCCc3coc(c31)C(=O)c1cc3c(cc12)C(=O)C=CC3=O`, the GI50 was more than 1 µM; the TGI was > 1 µM and 41.8 µM.
For the compound `COc1cc(C)c2c(c1C)OC(=O)c1c(C)c(Cl)c(O)c(C=O)c1O2`, the TGI is 9.5 µM.
`C=CCNC(=O)N(CCC)CCCCC(NC(C)=O)C(=O)NCc1ccccc1` (configuration not stated) returned a TGI of more than 100 µM.
Same read-out and setting: with `COC(=O)/C(C=O)=C/Sc1ccccc1` the figure was 65.8 µM.
Still for that read-out and setting: with `Nc1ccn(C2(CO)C=C(CO)C(O)C2O)c(=O)n1` (configuration not stated) the figure was more than 25.8 µM; with `C=C1C[C@]23CCC4C(C)(C)C(=O)CC[C@]4(C)C2C[C@H]1C(O)C3=O` (some centres not stated), more than 75 µM; with `CC1(C)O/C(=C\c2ccccc2)C(=O)/C(=C/c2ccccc2)O1`, more than 100 µM.
The same measure, in the same setting: the result for `O=C1CC2C(=O)N(Cc3ccccc3)C1C=C2S(=O)(=O)c1ccccc1` (configuration not stated) reads more than 100 µM.
`N.N.N.N.[Cl-].[Co+3].[N-]=[N+]=[N-].[N-]=[N+]=[N-]`: the GI50 was more than 100 µM and the TGI was more than 100 µM.
As to `O=c1[nH]c2cc(Cl)ccc2nc1/C(=N\O)C(O)c1ccc(Cl)cc1Cl` (configuration not stated), the TGI is more than 100 µM.
Same read-out and setting: the result for `CC(C)CCCC(C)[C@H]1CCC2[C@H]3C(CC[C@@]21C)[C@@]1(C)CCC=C[C@]12C[C@@H]2[C@@H]3O` (some centres not stated) reads more than 100 µM.
For the compound `O=C(Nc1cc(Cl)ccc1Cl)C(=O)C(c1cnc2ccccc2n1)[N+](=O)[O-]` (configuration not stated), the TGI is more than 100 µM.
Still for that read-out and setting: the result for `COC(=O)CCC(=O)CC1CC(=O)C2CCCN12` (configuration not stated) reads more than 100 µM; that for `Nc1nc(CCl)nc(Nc2ccccc2)n1`, 32.8 µM; that for `CN[C@@H](C)[C@H](NC)c1ccccc1`, more than 100 µM.
`O=S1OC2(c3ccccc3-c3ccccc32)c2ccccc21` (configuration not stated) returned a TGI of more than 100 µM.
The same measure, in the same setting: with `CCOC(=N)CC(=O)Nc1cccc(C)c1C` the figure was more than 100 µM.

The subject of another test is OVCAR-4 ovarian. As to the kind of experiment: NCI tumour cell line growth inhibition, 48 h.
In turn, `COc1cc2ccc3c4cc(OC)c(OC(C)C)cc4cnc3c2cc1OC` yielded a TGI of more than 100 µM.
The same measure, in the same setting: with `CN1NC(=Nc2ccccc2)Sc2c1cnn(-c1ccccc1)c2=O` the figure was more than 100 µM.
As to `C1C[OH+]CCNCC[OH+]CC[OH+]CCN1.[Cl-].[Pt+4]`, the GI50 is more than 100 µM and the TGI was more than 100 µM.
In turn, `CC(=O)c1sc(-c2nc(C)c(C(=O)/C=C\c3ccc(/C=C\C(=O)c4sc(-c5nc(C)c(C(C)=O)s5)nc4C)cc3)s2)nc1C` came in with a TGI of more than 100 µM.
Same read-out and setting: with `COC(=O)/C(C)=C/[N+](=O)[O-]` the figure was 33.5 µM.
The same measure, in the same setting: with `Cc1ccc(C2(O)CC(c3ccc([N+](=O)[O-])o3)=NN2C(=O)COc2ccc(Cl)cc2)cc1` (configuration not stated) the figure was 77.9 µM.
Same read-out and setting: the result for `CC1=NN(C(=O)CC(=O)N(C(=O)c2ccccc2Cl)c2ccc(C)cc2)C(=O)C1N=Nc1ccc([N+](=O)[O-])cc1` (configuration not stated) reads more than 100 µM; that for `COc1cccc(-n2c3nc(=O)n(C)c(=O)c-3nc3ccccc32)c1`, 25.2 µM; that for `CC(C)(C=O)CC(C#N)/C(=N\NC(N)=O)C(=O)Nc1ccccc1C(N)=O` (configuration not stated), more than 100 µM.
Regarding `Cc1cc(C)c(C2[C@H]3C(=O)N(c4ccc(Cc5ccc(N6C(=O)[C@@H]7ON(c8ccccc8)C(c8c(C)cc(C)cc8C)[C@@H]7C6=O)cc5)cc4)C(=O)[C@H]3ON2c2ccccc2)c(C)c1` (some centres not stated), the TGI is more than 100 µM.
Same read-out and setting: with `COC(=O)OCC1OC(N2C(=O)NC(=O)C(Br)C2N=[N+]=[N-])CC1OC(=O)OC` (configuration not stated) the figure was more than 100 µM; with `CC12CCCCC1(C)C2Sc1ccccc1` (configuration not stated), more than 100 µM.
Same read-out and setting: the result for `CCCCOC(=O)NC(=O)c1cn(CCCOC(=O)NCCCCCCNC(=O)OCCCn2cc(C(=O)NC(=O)OCCCC)c(=O)[nH]c2=O)c(=O)[nH]c1=O` reads more than 100 µM.
As for `C[C@@]12CCCc3coc(c31)C(=O)c1cc3c(cc12)C(=O)C=CC3=O`, the GI50 was more than 1 µM; the TGI was > 1 µM and 28.9 µM.
As to `C=CCNC(=O)N(CCC)CCCCC(NC(C)=O)C(=O)NCc1ccccc1` (configuration not stated), the TGI is more than 100 µM.
On the same count and under the same terms, the result for `COC(=O)/C(C=O)=C/Sc1ccccc1` reads more than 100 µM; that for `Nc1ccn(C2(CO)C=C(CO)C(O)C2O)c(=O)n1` (configuration not stated), more than 25.8 µM.
The same measure, in the same setting: with `C=C1C[C@]23CCC4C(C)(C)C(=O)CC[C@]4(C)C2C[C@H]1C(O)C3=O` (some centres not stated) the figure was more than 75 µM; with `CC1(C)O/C(=C\c2ccccc2)C(=O)/C(=C/c2ccccc2)O1`, more than 100 µM; with `O=C1CC2C(=O)N(Cc3ccccc3)C1C=C2S(=O)(=O)c1ccccc1` (configuration not stated), more than 100 µM.
In the case of `N.N.N.N.[Cl-].[Co+3].[N-]=[N+]=[N-].[N-]=[N+]=[N-]`, the GI50 was more than 100 µM and the TGI was more than 100 µM.
`O=c1[nH]c2cc(Cl)ccc2nc1/C(=N\O)C(O)c1ccc(Cl)cc1Cl` (configuration not stated) came in with a TGI of more than 100 µM.
Same read-out and setting: the result for `CC(C)CCCC(C)[C@H]1CCC2[C@H]3C(CC[C@@]21C)[C@@]1(C)CCC=C[C@]12C[C@@H]2[C@@H]3O` (some centres not stated) reads more than 100 µM.
On to `O=C(Nc1cc(Cl)ccc1Cl)C(=O)C(c1cnc2ccccc2n1)[N+](=O)[O-]` (configuration not stated), for which the TGI was more than 100 µM.
Still for that read-out and setting: the result for `COC(=O)CCC(=O)CC1CC(=O)C2CCCN12` (configuration not stated) reads more than 100 µM.
Turning to `Cc1cc(NS(=O)(=O)c2ccc(Nc3c4ccccc4nc4c(C(=O)NCCN(C)C)cccc34)cc2)no1`, the TGI amounted to 57.7 µM.
On the same count and under the same terms, with `Nc1nc(CCl)nc(Nc2ccccc2)n1` the figure was 32.1 µM.
